Experiments:
[1] = test system: Mango (Mangifera Indica Linn. variety name: Irwin); experiment: Rooting of mango cuttings in rooting medium containing oxidized glutathione; assay type: in vivo; conditions: one and half months
Text: A mango (Mangifera Indica Linn. variety name: Irwin) was used as a material of a cutting. Specifically, a cutting including one to three joints and one to five leaves was cut from a branch of a mother tree, and each leaf was partially cut off. Furthermore, the material was wounded by a cutter. The cutting was thus prepared.
The shoot thus obtained was washed with running water over night, and was dipped into an insecticide solution such as “Kotetsu”. Then the shoot had been planted to a supporter infiltrated with a four-diluted MS medium (Composition: ammonium nitrate of 412.5 mg/L, potassium nitrate of 475 mg/L, sodium dihydrogenphosphate of 42.52 mg/L, potassium iodide of 0.21 mg/L, etc. Note that a carbon source other than glutathione was not added to this medium.) to which the oxidized glutathione of 50 mg/L, STS (AgS4O6) of 5 μM serving as a silver ion source, ascorbic acid of 50 mg/L serving an antioxidant, and IBA of 10 mg/L serving as a plant hormone were added. In this case, natural soil such as sand and akadama soil; or a composite soil of vermiculite, perlite, peat moss, etc. was used as the supporter. […]
Ten to twenty shoots were planted per culture container. A rooting rate was calculated from the number of test pieces of the shoot and the number of shoots (the number of rooted shoots) which had been rooted after the foliage was cultured for one and half months.

[2] = test system: Tea plant; experiment: Rooting of tea plant cuttings, granule oxidized glutathione mixed with composite soil; assay type: in vivo; conditions: mix with soil; for Rooting rate (%): 462 test pieces; for Number of rooted shoots: of 462 test pieces
Procedure: Oxidized glutathione was prepared in such a way that 1% granule oxidized glutathione was mixed with a composite soil was used. Specifically, 1% granule oxidized glutathione of 15 g was mixed with a composite soil of peat moss and vermiculite (5.5 L), and was then put into a seedling pot (3 cm in inner diameter×15 cm in height×66 holes). This seedling pot served as a supporter. A four-diluted MS medium (Composition: ammonium nitrate of 412.5 mg/L, potassium nitrate of 475 mg/L, sodium dihydrogenphosphate of 42.52 mg/L, and potassium iodide of 0.21 mg/L. Note that a carbon source was not added to this medium.) to which IBA serving as a plant hormone of 10 mg/L was added was sprayed from the above the seedling pot by use of a watering can so that the supporter was soaked with the four-diluted MS medium.
Tea plant was used as a material for a cutting. Specifically, a cutting grown to have a length of about 5 cm to 20 cm, about one to three joints, about one to six leaves was cut out from a mother tree, and a tip of each leaf was cut off. In this way, the cutting was adjusted and prepared.
A base of the cutting thus adjusted and prepared was planted to a supporter (66 cuttings were planted per seedling pot). After this planting, the shoot was cultured for one and half months in a carbon dioxide gas concentration of 1000 ppm, a temperature of 25° C., and a humidity of 60% having a wavelength component of 650 nm to 670 nm to a wavelength component of 450 nm to 470 nm at a ratio of 8.2:1.8 under irradiation of red light having photosynthesis photon flux density of 51.3 μmol/m^2/S. After that, the seedling pot was moved to a green house, and was bred for two and half months. In the green house, a high humidity (80% or more) was kept by frequently spraying mist. After two and half month from this moving, a rooting rate was calculated from the number of rooted cuttings.
The culture was carried out in the same way as Example 12, except that an amount of 1% granule oxidized glutathione to be added to a composite soil (5.5 L) was set to 75 g.

[3] = test system: E. uro-grandis B; experiment: Rooting of cuttings, oxidized glutathione solution sprayed to phylloplane; assay type: in vivo, crossbreed of eucalyptus urophylla and eucalyptus grandis; conditions: for Rooting rate (%): 88 test pieces; for Number of rooted shoots: of 88 test pieces
Procedure: Oxidized glutathione was applied to a phylloplane of a cutting. That is, the cutting was prepared in the same way as that in Example 5, except that a mother tree of the cutting was E. uro-grandis (Line name: B). Then a base of the cutting was planted to the supporter similar to Example 5. An oxidized glutathione solution was prepared in the same way as Example 5, and, immediately after the base was planted, the oxidized glutathione solution was sprayed to the phylloplane in the form of a mist by use of a spray etc. A spray amount of the glutathione solution was set to about 1.1 ml per shoot. A breeding condition after planting the shoot was similar to Example 5, and a rooting rate was calculated in the same way as Example 5.
A seedling was bred in the same way as Example 8, except that a solution having an oxidized glutathione concentration of 500 mg/L was used as the oxidized glutathione solution.
A seedling was bred in the same way as Example 8, except that a solution having an oxidized glutathione concentration of 1000 mg/L was used as the oxidized glutathione solution.

[4] = Example 9: 500 mg/L, sprayed to phylloplane
[5] = Example 10: 1000 mg/L, sprayed to phylloplane

oxidized glutathione
Number of rooted shoots ([1]; Example 11: 50 mg/L in rooting medium, of 26 test pieces): 7
Rooting rate (%) ([1]; Example 11: 50 mg/L, adding glutathione to rooting medium (with STS, ascorbic acid, IBA 10 mg/L), 26 test pieces): 26.9%
Rooting rate (%) ([2]; Example 12: 3 mg/L in composite soil (15 g of 1% granule per 5.5 L)): 96.0%
Number of rooted shoots ([2]; Example 12: 3 mg/L in composite soil): 443
Rooting rate (%) ([2]; Example 13: 15 mg/L in composite soil (75 g of 1% granule per 5.5 L)): 99.6%
Number of rooted shoots ([2]; Example 13: 15 mg/L in composite soil): 461
Rooting rate (%) ([3]; Example 8: 200 mg/L, sprayed to phylloplane (about 1.1 ml per shoot), three weeks): 54.5%
Number of rooted shoots ([3]; Example 8: 200 mg/L, sprayed to phylloplane): 48
Rooting rate (%) [3, 4]: 59.1%
Number of rooted shoots [3, 4]: 52
Rooting rate (%) [3, 5]: 60.2%
Number of rooted shoots [3, 5]: 53

Reference: patent publication US20140366440A1, “METHOD FOR PRODUCING CLONE SEEDLINGS” (OKAYAMA PREFECTURE, priority 2009, published 2014)
